Assay results published in ChEMBL document CHEMBL3856205, “Synthesis and biological evaluation of novel 4-hydroxytamoxifen analogs as estrogen-related receptor gamma inverse agonists” (Eur J Med Chem, 2016).

Key:
[1] = target: T1, Steroid hormone receptor ERR1 (Homo sapiens, UniProt P11474); experiment: Inhibition of fluorescien-conjugated coactivator PGC1a binding to ERRalpha (unknown origin) after 1 hr by TR-FRET assay
T1 sequence (P11474 whole entry): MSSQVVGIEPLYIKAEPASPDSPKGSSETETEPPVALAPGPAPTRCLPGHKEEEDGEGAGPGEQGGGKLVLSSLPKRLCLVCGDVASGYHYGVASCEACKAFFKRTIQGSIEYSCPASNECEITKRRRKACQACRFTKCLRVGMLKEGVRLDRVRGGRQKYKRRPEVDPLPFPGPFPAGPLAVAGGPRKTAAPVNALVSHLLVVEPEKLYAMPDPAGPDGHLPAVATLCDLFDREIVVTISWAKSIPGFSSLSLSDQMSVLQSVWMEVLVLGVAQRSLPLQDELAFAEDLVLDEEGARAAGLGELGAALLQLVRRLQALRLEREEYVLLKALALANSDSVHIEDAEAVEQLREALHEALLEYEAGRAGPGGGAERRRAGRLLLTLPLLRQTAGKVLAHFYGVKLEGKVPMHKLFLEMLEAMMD

CYP1A2 = target: T2, CYP1A2 (Homo sapiens, UniProt P05177); experiment: Inhibition of CYP1A2 in human liver microsomes assessed as remaining activity by measuring phenacetin O-deethylase activity at 10 uM pre-incubated for 5 mins followed by NADPH regenerating system addition by LC-MS/MS analysis relative to control; type: ADME; conditions: probe phenacetin (O-deethylation), read-out: Activity
T2 sequence (P05177 whole entry): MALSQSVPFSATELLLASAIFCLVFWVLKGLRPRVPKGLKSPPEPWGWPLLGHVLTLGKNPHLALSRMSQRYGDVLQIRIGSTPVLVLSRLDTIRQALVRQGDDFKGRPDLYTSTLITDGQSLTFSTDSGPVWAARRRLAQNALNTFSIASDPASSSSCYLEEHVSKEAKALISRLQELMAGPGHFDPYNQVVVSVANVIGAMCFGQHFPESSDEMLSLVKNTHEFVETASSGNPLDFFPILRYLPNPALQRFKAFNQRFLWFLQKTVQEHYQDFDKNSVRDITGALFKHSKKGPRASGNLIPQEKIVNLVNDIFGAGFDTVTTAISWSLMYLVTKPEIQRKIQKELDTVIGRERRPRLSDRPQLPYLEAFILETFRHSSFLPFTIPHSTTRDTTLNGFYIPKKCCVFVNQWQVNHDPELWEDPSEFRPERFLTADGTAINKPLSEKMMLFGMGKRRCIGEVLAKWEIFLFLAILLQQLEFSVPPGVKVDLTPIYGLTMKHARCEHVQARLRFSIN

[2] = target: T3, Steroid hormone receptor ERR2 (Homo sapiens, UniProt O95718); experiment: Inhibition of fluorescien-conjugated coactivator PGC1a binding to ERRbeta (unknown origin) after 1 hr by TR-FRET assay
T3 sequence (O95718 whole entry): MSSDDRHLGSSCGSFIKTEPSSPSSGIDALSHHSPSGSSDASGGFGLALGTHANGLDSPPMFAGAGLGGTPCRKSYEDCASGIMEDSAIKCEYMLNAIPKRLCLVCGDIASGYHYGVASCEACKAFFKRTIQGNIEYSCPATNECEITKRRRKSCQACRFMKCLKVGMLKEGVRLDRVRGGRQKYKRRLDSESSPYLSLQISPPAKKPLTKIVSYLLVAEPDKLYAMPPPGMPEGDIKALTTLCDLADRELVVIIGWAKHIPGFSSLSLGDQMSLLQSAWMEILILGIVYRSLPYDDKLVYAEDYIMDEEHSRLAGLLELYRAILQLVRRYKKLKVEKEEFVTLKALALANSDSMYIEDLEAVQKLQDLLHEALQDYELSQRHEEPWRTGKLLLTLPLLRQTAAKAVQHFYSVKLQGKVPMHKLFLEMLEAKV

Estrogen receptor = target: T4, Estrogen receptor (Homo sapiens, UniProt P03372)
T4 sequence (P03372 whole entry): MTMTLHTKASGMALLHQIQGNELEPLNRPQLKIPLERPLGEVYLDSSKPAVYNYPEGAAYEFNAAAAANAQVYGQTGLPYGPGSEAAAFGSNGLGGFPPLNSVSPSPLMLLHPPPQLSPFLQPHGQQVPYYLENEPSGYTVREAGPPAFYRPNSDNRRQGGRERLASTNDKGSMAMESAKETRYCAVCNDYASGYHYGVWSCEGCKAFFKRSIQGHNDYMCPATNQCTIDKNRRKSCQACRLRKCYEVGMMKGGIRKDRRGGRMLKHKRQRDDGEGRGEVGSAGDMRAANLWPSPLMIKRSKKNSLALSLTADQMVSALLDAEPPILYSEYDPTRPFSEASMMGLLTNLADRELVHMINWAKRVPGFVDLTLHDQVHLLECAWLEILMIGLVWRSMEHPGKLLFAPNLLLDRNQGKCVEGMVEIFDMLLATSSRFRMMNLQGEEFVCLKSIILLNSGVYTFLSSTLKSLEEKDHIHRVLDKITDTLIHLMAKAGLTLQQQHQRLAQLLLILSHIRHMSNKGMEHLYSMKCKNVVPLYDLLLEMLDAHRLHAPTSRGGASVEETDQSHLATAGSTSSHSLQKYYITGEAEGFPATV
Description: Inhibition of fluorescien-conjugated coactivator PGC1a binding to ERalpha (unknown origin) after 1 hr by TR-FRET assay

CYP2C9 = CYP2C9 (Homo sapiens, UniProt P11712); experiment: Inhibition of CYP2C9 in human liver microsomes assessed as remaining activity by measuring tolbutamide 4-hydroxylase activity at 10 uM pre-incubated for 5 mins followed by NADPH regenerating system addition by LC-MS/MS analysis relative to control; type: ADME; conditions: probe tolbutamide (4-hydroxylation), read-out: Activity
Sequence of CYP2C9 (P11712 whole entry): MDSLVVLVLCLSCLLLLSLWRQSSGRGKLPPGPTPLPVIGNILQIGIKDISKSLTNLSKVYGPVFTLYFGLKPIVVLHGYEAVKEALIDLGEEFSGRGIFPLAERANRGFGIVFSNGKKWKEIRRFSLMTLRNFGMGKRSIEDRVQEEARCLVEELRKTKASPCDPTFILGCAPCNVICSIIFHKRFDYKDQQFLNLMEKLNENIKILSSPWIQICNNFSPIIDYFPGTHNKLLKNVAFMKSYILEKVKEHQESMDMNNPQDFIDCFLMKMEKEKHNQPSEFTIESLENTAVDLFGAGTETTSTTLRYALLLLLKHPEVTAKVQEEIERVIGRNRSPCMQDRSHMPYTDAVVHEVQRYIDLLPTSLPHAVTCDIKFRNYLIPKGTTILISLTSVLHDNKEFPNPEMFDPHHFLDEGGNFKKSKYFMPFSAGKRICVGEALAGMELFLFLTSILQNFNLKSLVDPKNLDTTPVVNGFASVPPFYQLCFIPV

CYP2C19 = CYP2C19 (Homo sapiens, UniProt P33261); experiment: Inhibition of CYP2C19 in human liver microsomes assessed as remaining activity by measuring S-mephenytoin 4-hydroxylase activity at 10 uM pre-incubated for 5 mins followed by NADPH regenerating system addition by LC-MS/MS analysis relative to control; type: ADME; conditions: probe S-mephenytoin (4-hydroxylation), read-out: Activity
Sequence of CYP2C19 (P33261 whole entry): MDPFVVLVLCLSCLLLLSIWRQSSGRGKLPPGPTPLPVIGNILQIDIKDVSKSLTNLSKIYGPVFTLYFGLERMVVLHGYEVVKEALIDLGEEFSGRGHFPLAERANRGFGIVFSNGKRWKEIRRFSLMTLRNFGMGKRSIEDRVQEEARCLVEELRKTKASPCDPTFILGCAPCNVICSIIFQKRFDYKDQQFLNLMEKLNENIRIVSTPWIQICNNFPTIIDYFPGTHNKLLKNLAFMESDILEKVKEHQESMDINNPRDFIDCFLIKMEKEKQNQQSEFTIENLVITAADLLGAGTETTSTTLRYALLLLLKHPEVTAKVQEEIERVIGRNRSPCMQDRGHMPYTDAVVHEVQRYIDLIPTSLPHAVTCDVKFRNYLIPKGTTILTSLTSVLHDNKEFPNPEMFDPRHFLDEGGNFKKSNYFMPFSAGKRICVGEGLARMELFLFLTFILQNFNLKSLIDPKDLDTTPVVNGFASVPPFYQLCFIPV

CYP2D6 = CYP2D6 (Homo sapiens, UniProt P10635); experiment: Inhibition of CYP2D6 in human liver microsomes assessed as remaining activity by measuring dextromethorphan O-demethylase activity at 10 uM pre-incubated for 5 mins followed by NADPH regenerating system addition by LC-MS/MS analysis relative to control; type: ADME; conditions: probe dextromethorphan (O-demethylation), read-out: Activity
Sequence of CYP2D6 (P10635 whole entry): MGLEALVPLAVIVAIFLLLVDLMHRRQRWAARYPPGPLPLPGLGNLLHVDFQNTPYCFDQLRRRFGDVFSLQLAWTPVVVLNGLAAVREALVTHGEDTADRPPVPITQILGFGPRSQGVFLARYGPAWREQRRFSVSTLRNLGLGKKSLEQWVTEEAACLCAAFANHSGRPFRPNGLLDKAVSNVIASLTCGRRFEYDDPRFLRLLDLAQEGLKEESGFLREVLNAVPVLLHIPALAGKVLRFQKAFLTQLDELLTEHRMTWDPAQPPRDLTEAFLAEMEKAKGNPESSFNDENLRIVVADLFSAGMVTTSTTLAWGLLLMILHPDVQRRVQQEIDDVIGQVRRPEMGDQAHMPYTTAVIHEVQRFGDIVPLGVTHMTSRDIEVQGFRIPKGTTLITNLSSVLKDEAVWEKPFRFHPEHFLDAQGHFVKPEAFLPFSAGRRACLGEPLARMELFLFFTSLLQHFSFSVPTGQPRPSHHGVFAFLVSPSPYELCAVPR

CYP3A4 = CYP3A4 (Homo sapiens, UniProt P08684); experiment: Inhibition of CYP3A4 in human liver microsomes assessed as remaining activity by measuring midazolam 1'-hydroxylase activity at 10 uM pre-incubated for 5 mins followed by NADPH regenerating system addition by LC-MS/MS analysis relative to control; type: ADME; conditions: probe midazolam (1'-hydroxylation), read-out: Activity
Sequence of CYP3A4 (P08684 whole entry): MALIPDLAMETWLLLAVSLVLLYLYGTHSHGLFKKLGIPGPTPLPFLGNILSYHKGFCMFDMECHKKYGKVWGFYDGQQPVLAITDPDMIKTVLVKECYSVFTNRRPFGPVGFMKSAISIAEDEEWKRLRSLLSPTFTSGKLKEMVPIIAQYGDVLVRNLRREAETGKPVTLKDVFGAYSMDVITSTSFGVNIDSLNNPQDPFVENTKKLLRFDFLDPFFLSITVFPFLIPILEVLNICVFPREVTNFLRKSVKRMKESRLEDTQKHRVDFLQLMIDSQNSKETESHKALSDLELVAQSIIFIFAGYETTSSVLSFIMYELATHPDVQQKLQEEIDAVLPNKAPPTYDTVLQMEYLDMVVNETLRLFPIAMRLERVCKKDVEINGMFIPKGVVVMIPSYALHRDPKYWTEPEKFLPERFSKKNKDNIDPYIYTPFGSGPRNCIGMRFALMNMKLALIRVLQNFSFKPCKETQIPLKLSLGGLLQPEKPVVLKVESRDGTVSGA

[3] = Metabolic stability in dog liver microsomes assessed as compound remaining at 1 uM after 30 mins in presence of NADPH by LC-MS/MS analysis; type: ADME, Canis lupus familiaris; conditions: read-out: Stability
[4] = Permeability of the compound in PBS at pH 7.4 at 10 uM after 5 hrs by LC-MS/MS analysis; type: ADME; conditions: not told, read-out: permeability
[5] = target: T5, Estrogen-related receptor gamma (Homo sapiens, UniProt P62508)
T5 sequence (P62508 whole entry): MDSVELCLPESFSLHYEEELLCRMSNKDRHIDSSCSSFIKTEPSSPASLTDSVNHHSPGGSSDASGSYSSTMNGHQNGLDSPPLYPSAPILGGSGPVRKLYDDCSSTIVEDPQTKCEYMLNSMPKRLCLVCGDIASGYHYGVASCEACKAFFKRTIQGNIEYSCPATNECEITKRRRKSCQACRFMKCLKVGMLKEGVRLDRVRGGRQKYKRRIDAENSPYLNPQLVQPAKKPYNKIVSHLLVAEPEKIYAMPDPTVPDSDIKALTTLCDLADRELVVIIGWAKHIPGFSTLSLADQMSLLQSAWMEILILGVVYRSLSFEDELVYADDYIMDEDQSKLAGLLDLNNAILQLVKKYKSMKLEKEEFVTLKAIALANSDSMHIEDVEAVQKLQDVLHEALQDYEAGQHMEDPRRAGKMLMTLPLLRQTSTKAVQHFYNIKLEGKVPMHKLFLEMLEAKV
Description: Inhibition of fluorescien-conjugated coactivator PGC1a binding to GST-tagged human ERRgamma LBD after 1 hr by TR-FRET assay

[6] = target: T5, Estrogen-related receptor gamma; remark: listed apart in the source
Description: Inverse agonist activity at ERRgamma (unknown origin) expressed in human AD293 cells after 24 hrs by beta-galactosidase/luciferase reporter gene assay

in vitro [7] = conditions: human, liver microsomes
Description: Metabolic stability in human liver microsomes assessed as compound remaining at 1 uM after 30 mins in presence of NADPH by LC-MS/MS analysis

in vitro [8] = conditions: rat, liver microsomes
Description: Metabolic stability in rat liver microsomes assessed as compound remaining at 1 uM after 30 mins in presence of NADPH by LC-MS/MS analysis

in vitro [9] = conditions: mouse, liver microsomes
Description: Metabolic stability in mouse liver microsomes assessed as compound remaining at 1 uM after 30 mins in presence of NADPH by LC-MS/MS analysis

IC50 [1]	activity at 10 µM (CYP1A2)	IC50 [2]	IC50 (Estrogen receptor)	activity at 10 µM (CYP2C9)	activity at 10 µM (CYP2C19)	activity at 10 µM (CYP2D6)	activity at 10 µM (CYP3A4)	remaining at 0.5 h, 1 µM [3]	Papp at 5 h, 10 µM [4]	IC50 [5]	IC50 [6]	remaining at 0.5 h, 1 µM (in vitro [7])	remaining at 0.5 h, 1 µM (in vitro [8])	remaining at 0.5 h, 1 µM (in vitro [9])	SMILES
> 10 µM	82%	> 10 µM	0.875 µM	90%	70%	98%	93%	22%	1.02 ×10⁻⁶ cm/s	180 nM	79 nM	18%	32%	10%	CCN(CC)CCOc1ccc(/C(=C(/CCCO)c2ccccc2)c2ccc(O)cc2)cc1.Cl
> 10 µM	> 100%	> 10 µM	> 10 µM	60%	> 100%	> 100%	> 100%	13%	9.94 ×10⁻⁶ cm/s	270 nM	669 nM	59%	25%	16%	Cc1ccc(/C(=C(\CCCO)c2ccccc2)c2ccc(OCCN(C)C)cc2)cc1.Cl
> 10 µM	91%	> 10 µM	3.34 µM	44%	76%	89%	85%	76%	0.03 ×10⁻⁶ cm/s	190 nM	187 nM	83%	79%	20%	CNCCOc1ccc(/C(=C(/CCCO)c2ccccc2)c2ccc(O)cc2)cc1.Cl
